pIC50: −log10 of the molar value. Values after ≈ are worked out from the molar mass of the structure shown. Values belong to the molecule of their own block, whether it stands above or below them.
Experiments:
[1] = Lipophilicity, logP of compound; assay type: physicochemical; details: octanol/water
SH-SY5Y = test: Neuroprotective activity against MPP+-induced human SH-SY5Y cells assessed as reduction in cell death at 20 uM measured after 48 hrs by MTT assay; assay type: functional; parameters: scale not given: the % may be the effect or the level left
[2] = Solubility of compound in PBS at pH 7.4; assay type: physicochemical
Platelet [3] = test: Inhibition of ADP-induced platelet aggregation in New Zealand White rabbit at 1 uM relative to control; assay type: functional; details: Oryctolagus cuniculus
Rattus norvegicus [4] = test: Protection against MCAO-induced Sprague-Dawley rat assessed as reduction in infarct volume in brain at 20 mg/kg, iv measured for 24 hrs relative to control; assay type: functional; parameters: scale not given: the % may be the effect or the level left
[5] = Half life in rat at 15 mg/kg, iv measured after 24 hrs by LC-MS/MS analysis; assay type: ADME, organism-based; details: in vivo
[6] = Ratio of drug concentration in rat brain to plasma measured after 1 hrs by LC-MS/MS analysis; assay type: ADME; details: read-out: BPR
[7] = Ratio of drug concentration in rat brain to plasma measured after 0.5 hrs by LC-MS/MS analysis; assay type: ADME; details: read-out: BPR
[8] = Ratio of drug concentration in rat brain to plasma measured after 6 hrs by LC-MS/MS analysis; assay type: ADME; details: read-out: BPR
Mus musculus = test: Neuroprotective activity against hypoxia-ischemia brain injured mouse model assessed as reduction in infarct volume at 20 mg/kg, iv measured after 72 hrs by immuno-histochemistry based staining analysis relative to control; assay type: functional; parameters: scale not given: the % may be the effect or the level left
Rattus norvegicus [9] = test: Protection against MCAO-induced rat assessed as reduction in infarct volume in brain at 40 mg/kg, iv measured after 24 hrs relative to control; assay type: functional; parameters: scale not given: the % may be the effect or the level left
Platelet [10] = test: Inhibition of ADP-induced platelet aggregation in New Zealand White rabbit; assay type: functional, cell-based; details: Oryctolagus cuniculus
Platelet [11] = test: Inhibition of AA-induced platelet aggregation in New Zealand White rabbit; assay type: functional, cell-based; details: Oryctolagus cuniculus
[12] = Cmax in Sprague-Dawley rat at 12.5 mg/kg, iv measured for 24 hrs by LC-MS/MS analysis; assay type: ADME, organism-based; details: in vivo
[13] = AUC (0 to infinity) in Sprague-Dawley rat at 12.5 mg/kg, iv incubated for 24 hrs by LC-MS/MS analysis; assay type: ADME, organism-based; details: in vivo
[14] = AUC (0 to t) in Sprague-Dawley rat at 12.5 mg/kg, iv incubated for 24 hrs by LC-MS/MS analysis; assay type: ADME, organism-based; details: in vivo
[15] = Plasma concentration in human; assay type: ADME

Compound: COC(=O)[C@H]1O[C@@H](Oc2cc3oc(-c4ccc(OCCCCOC(=O)C5=CCc6cc(OC)ccc6N5C)cc4)cc(=O)c3c(O)c2O)[C@H](O)[C@H](O)[C@H]1O (single isomer, unassigned)
logP [1]: 1.76
Activity (SH-SY5Y): 65%
solubility [2]: 183 µg/mL (≈ 245 µM)

Compound: CCCCC1OC(=O)c2ccccc21 (stereo not drawn) [RAC-3-N-BUTYLPHTHALIDE]
inhibition at 1 µM (Platelet [3]): 51.4%

Compound: CC(=O)Oc1ccccc1C(=O)O [ASPIRIN]
inhibition at 1 µM (Platelet [3]): 73.7%

Compound: Cc1cc(O)n(-c2ccc(F)cc2)n1
Activity (Rattus norvegicus [4]): 32.46%

half-life [5]: 44 min
Kp at 1 h [6]: 1.27
Kp at 0.5 h [7]: 1.99
Kp at 6 h [8]: 4.8
Compound: CCCCC(OC(=O)CN(C)C)c1ccccc1C(=O)Oc1ccc(/C=C/C(=O)OC[C@@H]2OC(O)[C@@H](O)[C@H](O)[C@H]2O)cc1OC (stereo partly specified)

Compound: CC(=N)NCc1cccc(/C=[N+](\[O-])C(C)(C)C)c1
Activity (Mus musculus): 30%

Compound: CCCCC(OC(=O)CN(CC)CC)c1ccccc1C(=O)Oc1ccc(/C=C/C(=O)OCCCCO[N+](=O)[O-])cc1OC (stereo unspecified)
Activity (Rattus norvegicus [9]): 18.3%
inhibition at 1 µM (Platelet [3]): 88.5%

pIC50 (Platelet [10]): 7.00
pIC50 (Platelet [11]): 6.96
Compound: CCCC[C@H](OC(=O)CN1CCC(O[N+](=O)[O-])CC1)c1ccccc1C(=O)OCCCCCCOc1ccc(-c2cc(=S)ss2)cc1

Compound: CCCC[C@H](OC(C)=O)c1ccccc1C(=O)O
Activity (Rattus norvegicus [4]): 66.12%

Compound: CCCC[C@H](OC(C)=O)c1ccccc1C(=O)O.N=C(N)NCCC[C@H](N)C(=O)O
Activity (Rattus norvegicus [9]): 78.21%

Cmax [12]: 3330 ng/mL
AUC [13]: 4579 h/ng/mL
AUCt [14]: 3927.4 h/ng/mL
Compound: O=P([O-])([O-])Oc1ccc(-c2cc(=S)ss2)cc1.[Na+].[Na+]

pIC50 (Platelet [10]): 6.15
pIC50 (Platelet [11]): 6.38
Compound: CCCC[C@H]1OC(=O)c2ccccc21
Activity (Rattus norvegicus [4]): 78.21%

Compound: O=C(Nc1cc(C(F)(F)F)cc(C(F)(F)F)c1)c1cc(Cl)ccc1OP(=O)(O)O
Cp [15]: > 500 ng/mL

pIC50 (Platelet [10]): 6.44
Compound: Clc1ccccc1CN1CCc2sccc2C1 [TICLOPIDINE]

Compound: O=C(O)[C@H]1O[C@@H](Oc2cc3oc(-c4ccc(O)cc4)cc(=O)c3c(O)c2O)[C@H](O)[C@@H](O)[C@@H]1O [SCUTELLARIN]
logP [1]: 0.015
